# Source: PMC8330742, “New benzothieno[2,3-c]pyridines as non-steroidal CYP17 inhibitors: design, synthesis, anticancer screening, apoptosis induction, and in silico ADME profile studies” (Journal of Enzyme Inhibition and Medicinal Chemistry, 2021)
# Experiments:
# [1] = test system: LOX IMVI; assay: NCI-60 SRB screen; type: cell-based, human; settings: Homo sapiens, single dose 10^−5 M, read-out: Growth inhibition (%)
# [2] = test system: COLO 205; assay: NCI-60 SRB screen; type: cell-based, human; settings: Homo sapiens; COLO 205; single dose 10^−5 M; read-out: Growth inhibition (%)
# [3] = test system: UACC-62; assay: NCI-60 SRB screen; type: cell-based, human; settings: Homo sapiens; UACC-62; single dose 10^−5 M; read-out: Growth inhibition (%)
# [4] = test system: SK-MEL-2; assay: NCI-60 SRB screen; type: cell-based, human; settings: Homo sapiens; SK-MEL-2; single dose 10^−5 M; read-out: Growth inhibition (%)
# [5] = test system: CAKI-1; assay: NCI-60 SRB screen; type: cell-based, human; settings: Homo sapiens; CAKI-1; single dose 10^−5 M; read-out: Growth inhibition (%)
# [6] = test system: K-562; assay: NCI-60 SRB screen; type: cell-based, human; settings: Homo sapiens, K562; K-562; single dose 10^−5 M; read-out: Growth inhibition (%)
# [7] = test system: SK-MEL-28; assay: NCI-60 SRB screen; type: cell-based; settings: Homo sapiens; SK-MEL-28; single dose 10^−5 M; read-out: Growth inhibition (%)
# [8] = test system: HOP-62; assay: NCI-60 SRB screen; type: cell-based, human; settings: Homo sapiens; HOP-62; single dose 10^−5 M; read-out: Growth inhibition (%)
# [9] = test system: SK-OV-3; assay: NCI-60 SRB screen; type: cell-based, human; settings: Homo sapiens; SK-OV-3; single dose 10^−5 M; read-out: Growth inhibition (%)
# [10] = test system: HCT-116; assay: NCI-60 SRB screen; type: cell-based, human; settings: Homo sapiens; HCT-116; single dose 10^−5 M; read-out: Growth inhibition (%)
# [11] = test system: ACHN; assay: NCI-60 SRB screen; type: cell-based; settings: Homo sapiens, single dose 10^−5 M, read-out: Growth inhibition (%)
# [12] = test system: SN12C; assay: NCI-60 SRB screen; type: cell-based, human; settings: Homo sapiens, SN12C; SN 12 C; single dose 10^−5 M; read-out: Growth inhibition (%)
# [13] = test system: OVCAR-8; assay: NCI-60 SRB screen; type: cell-based, human; settings: Homo sapiens; OVCAR-8; single dose 10^−5 M; read-out: Growth inhibition (%)
# [14] = test system: A549/ATCC; assay: NCI-60 SRB screen; type: cell-based, human; settings: Homo sapiens, single dose 10^−5 M, read-out: Growth inhibition (%)
# [15] = test system: HL-60(TB); assay: NCI-60 SRB screen; type: cell-based, human; settings: Homo sapiens; HL-60 (TB); single dose 10^−5 M; read-out: Growth inhibition (%)
# [16] = test system: 786-0; assay: NCI-60 SRB screen; type: cell-based; settings: Homo sapiens; 786-0; single dose 10^−5 M; read-out: Growth inhibition (%)
# [17] = test system: NCI-H460; assay: NCI-60 SRB screen; type: cell-based, human; settings: Homo sapiens; NCI-H460; single dose 10^−5 M; read-out: Growth inhibition (%)
# [18] = test system: KM12; assay: NCI-60 SRB screen; type: cell-based, human; settings: Homo sapiens; KM12; single dose 10^−5 M; read-out: Growth inhibition (%)
# [19] = test system: UO-31; assay: NCI-60 SRB screen; type: cell-based, human; settings: Homo sapiens; UO-31; single dose 10^−5 M; read-out: Growth inhibition (%)
# [20] = test system: EKVX; assay: NCI-60 SRB screen; type: cell-based, human; settings: Homo sapiens, single dose 10^−5 M, read-out: Growth inhibition (%)
# [21] = test system: SK-MEL-5; assay: NCI-60 SRB screen; type: cell-based, human; settings: Homo sapiens; SK-MEL-5; single dose 10^−5 M; read-out: Growth inhibition (%)
# [22] = test system: NCI-H322M; assay: NCI-60 SRB screen; type: cell-based, human; settings: Homo sapiens, single dose 10^−5 M, read-out: Growth inhibition (%)
# [23] = test system: TK-10; assay: NCI-60 SRB screen; type: cell-based, human; settings: Homo sapiens; TK-10; single dose 10^−5 M; read-out: Growth inhibition (%)
# [24] = test system: SF-295; assay: NCI-60 SRB screen; type: cell-based, human; settings: Homo sapiens; SF-295; single dose 10^−5 M; read-out: Growth inhibition (%)
# [25] = test system: CCRF-CEM; assay: NCI-60 SRB screen; type: cell-based; settings: Homo sapiens, single dose 10^−5 M, read-out: Growth inhibition (%)
# [26] = test system: SF-268; assay: NCI-60 SRB screen; type: cell-based, human; settings: Homo sapiens; SF-268; single dose 10^−5 M; read-out: Growth inhibition (%)
# [27] = test system: SW-620; assay: NCI-60 SRB screen; type: cell-based; settings: Homo sapiens; SW-620; single dose 10^−5 M; read-out: Growth inhibition (%)
# [28] = test system: NCI-H226; assay: NCI-60 SRB screen; type: cell-based, human; settings: Homo sapiens; NCI-H226; single dose 10^−5 M; read-out: Growth inhibition (%)
# [29] = test system: panel of 60 cancer cell lines; assay: NCI-60 SRB screen, mean or range over the panel; type: cell-based, human; settings: Homo sapiens; mean over the cell lines; single dose 10^−5 M; read-out: Mean growth inhibition (%)
# [30] = test system: NCI/ADR-RES; assay: NCI-60 SRB screen; type: cell-based, human; settings: Homo sapiens, single dose 10^−5 M, read-out: Growth inhibition (%)
# [31] = test system: HT-29; assay: NCI-60 SRB screen; type: cell-based; settings: Homo sapiens; HT-29; single dose 10^−5 M; read-out: Growth inhibition (%)
# [32] = test system: SR; assay: NCI-60 SRB screen; type: cell-based; settings: Homo sapiens, single dose 10^−5 M, read-out: Growth inhibition (%)
# [33] = test system: NCI-H522; assay: NCI-60 SRB screen; type: cell-based, human; settings: Homo sapiens; NCI-H522; single dose 10^−5 M; read-out: Growth inhibition (%)
# [34] = test system: IGROV1; assay: NCI-60 SRB screen; type: cell-based, human; settings: Homo sapiens, IGROV-1; IGROV1; single dose 10^−5 M; read-out: Growth inhibition (%)
# [35] = test system: MOLT-4; assay: NCI-60 SRB screen; type: cell-based; settings: Homo sapiens; MOLT-4; single dose 10^−5 M; read-out: Growth inhibition (%)
# [36] = test system: UACC-257; assay: NCI-60 SRB screen; type: cell-based, human; settings: Homo sapiens, UACC-257; UACC-275 (so in the source); single dose 10^−5 M; read-out: Growth inhibition (%)
# [37] = test system: OVCAR-4; assay: NCI-60 SRB screen; type: cell-based, human; settings: Homo sapiens; OVCAR-4; single dose 10^−5 M; read-out: Growth inhibition (%)
# [38] = test system: NCI-H23; assay: NCI-60 SRB screen; type: cell-based, human; settings: Homo sapiens; NCI-H23; single dose 10^−5 M; read-out: Growth inhibition (%)
# [39] = test system: OVCAR-3; assay: NCI-60 SRB screen; type: cell-based, human; settings: Homo sapiens; OVCAR-3; single dose 10^−5 M; read-out: Growth inhibition (%)
# [40] = test system: HCT-15; assay: NCI-60 SRB screen; type: cell-based, human; settings: Homo sapiens; HCT-15; single dose 10^−5 M; read-out: Growth inhibition (%)
# [41] = test system: HOP-92; assay: NCI-60 SRB screen; type: cell-based, human; settings: Homo sapiens; HOP-92; single dose 10^−5 M; read-out: Growth inhibition (%)
# [42] = test system: MALME-3M; assay: NCI-60 SRB screen; type: cell-based, human; settings: Homo sapiens, single dose 10^−5 M, read-out: Growth inhibition (%)
# [43] = test system: M14; assay: NCI-60 SRB screen; type: cell-based, human; settings: Homo sapiens; M14; single dose 10^−5 M; read-out: Growth inhibition (%)
# [44] = test system: MDA-MB-435; assay: NCI-60 SRB screen; type: cell-based; settings: Homo sapiens, MDA-MB-435, read-out: Growth inhibition (%)
# [45] = test system: HCC-2998; assay: NCI-60 SRB screen; type: cell-based, human; settings: Homo sapiens; HCC-2998; single dose 10^−5 M; read-out: Growth inhibition (%)
compound,measurement,setting,value
"O=C1NC(c2ccccc2[N+](=O)[O-])c2sc3c(F)cccc3c2C1Cl (stereo not drawn) [Compound 4c, 4-Chloro-8-fluoro-1-(2-nitrophenyl)-1,2-dihydro[1]benzothieno[2,3-c] pyridine-3(4H)-one]",inhibition at 10 µM,[1],8.72%
same,inhibition at 10 µM,[2],-21.6%
same,inhibition at 10 µM,[3],20.8%
same,inhibition at 10 µM,[4],-16.7%
same,inhibition at 10 µM,[5],12.4%
same,inhibition at 10 µM,[6],33.5%
same,inhibition at 10 µM,[7],8.45%
same,inhibition at 10 µM,[8],3.32%
same,inhibition at 10 µM,[9],-9.85%
same,inhibition at 10 µM,[10],11.4%
same,inhibition at 10 µM,[11],-4.45%
same,inhibition at 10 µM,[12],4.76%
same,inhibition at 10 µM,[13],1.73%
same,inhibition at 10 µM,[14],3.15%
same,inhibition at 10 µM,[15],-5.53%
same,inhibition at 10 µM,[16],-16.9%
same,inhibition at 10 µM,[17],17.2%
same,inhibition at 10 µM,[18],-0.66%
same,inhibition at 10 µM,[19],33.2%
same,inhibition at 10 µM,[20],11.8%
same,inhibition at 10 µM,[21],8.45%
same,inhibition at 10 µM,[22],-4.23%
same,inhibition at 10 µM,[23],-52%
same,inhibition at 10 µM,[24],-7.26%
same,inhibition at 10 µM,[25],-0.04%
same,inhibition at 10 µM,[26],10.5%
same,inhibition at 10 µM,[27],2.43%
same,inhibition at 10 µM,[28],18.5%
same,inhibition at 10 µM,[29],3%
same,inhibition at 10 µM,[30],-1.98%
same,inhibition at 10 µM,[31],-9.93%
same,inhibition at 10 µM,[32],0.2%
same,inhibition at 10 µM,[33],7.95%
same,inhibition at 10 µM,[34],33%
same,inhibition at 10 µM,[35],11.8%
same,inhibition at 10 µM,[36],-0.18%
same,inhibition at 10 µM,[37],11.1%
same,inhibition at 10 µM,[38],6.95%
same,inhibition at 10 µM,[39],7.25%
same,inhibition at 10 µM,[40],-1.51%
same,inhibition at 10 µM,[41],-11.2%
same,inhibition at 10 µM,[42],9.46%
same,inhibition at 10 µM,[43],1.7%
same,inhibition at 10 µM,[44],-7.17%
same,inhibition at 10 µM,[45],-27.4%
"O=C1NC(c2cccc([N+](=O)[O-])c2)c2sc3c(F)cccc3c2C1Cl (stereo not drawn) [Compound 4d, 4-Chloro-8-fluoro-1-(3-nitrophenyl)-1,2-dihydro[1]benzothieno[2,3-c] pyridine-3(4H)-one]",inhibition at 10 µM,[1],5.22%
same,inhibition at 10 µM,[2],-17.2%
same,inhibition at 10 µM,[3],10.4%
same,inhibition at 10 µM,[4],-26.1%
same,inhibition at 10 µM,[5],27.4%
same,inhibition at 10 µM,[6],23%
same,inhibition at 10 µM,[7],-10.5%
same,inhibition at 10 µM,[8],1.22%
same,inhibition at 10 µM,[9],-10.2%
same,inhibition at 10 µM,[10],9.54%
same,inhibition at 10 µM,[11],6.28%
same,inhibition at 10 µM,[12],2.95%
same,inhibition at 10 µM,[13],-1.82%
same,inhibition at 10 µM,[14],-2.89%
same,inhibition at 10 µM,[15],-16.8%
same,inhibition at 10 µM,[16],-11.2%
same,inhibition at 10 µM,[17],1.43%
same,inhibition at 10 µM,[18],-5.21%
same,inhibition at 10 µM,[19],34.7%
same,inhibition at 10 µM,[20],0.87%
same,inhibition at 10 µM,[21],4.05%
same,inhibition at 10 µM,[22],-0.93%
same,inhibition at 10 µM,[23],-40.7%
same,inhibition at 10 µM,[24],-3.1%
same,inhibition at 10 µM,[25],1.99%
same,inhibition at 10 µM,[26],6.94%
same,inhibition at 10 µM,[27],3.43%
same,inhibition at 10 µM,[28],5.26%
same,inhibition at 10 µM,[29],0.15%
same,inhibition at 10 µM,[30],-8.05%
same,inhibition at 10 µM,[31],2.3%
same,inhibition at 10 µM,[32],11.4%
same,inhibition at 10 µM,[33],8.55%
same,inhibition at 10 µM,[34],22.8%
same,inhibition at 10 µM,[35],9.18%
same,inhibition at 10 µM,[36],-15.8%
same,inhibition at 10 µM,[37],1.96%
same,inhibition at 10 µM,[38],-1.19%
same,inhibition at 10 µM,[39],-4.91%
same,inhibition at 10 µM,[40],1.31%
same,inhibition at 10 µM,[41],5.89%
same,inhibition at 10 µM,[42],4.62%
same,inhibition at 10 µM,[43],-0.99%
same,inhibition at 10 µM,[44],-7.63%
same,inhibition at 10 µM,[45],-15.9%
